Assay results reported in patent publication US10670605B2, “Cysteine reactive probes and uses thereof” (The Scripps Research Institute, priority 2015, dated 2020).

Experiments:
Test in all cases: Competitive isoTOP-ABPP in situ (fragment-treated cells)
Type in all cases: cell-based
[1] = molecular target: cysteines in MDA-MB-231 and Ramos cells (Homo sapiens, UniProt Q9Y3D2)
[2] = molecular target: T1, cysteines in MDA-MB-231 and Ramos cells (Homo sapiens, UniProt Q9UPQ0)
T1 sequence (Q9UPQ0 1-1083): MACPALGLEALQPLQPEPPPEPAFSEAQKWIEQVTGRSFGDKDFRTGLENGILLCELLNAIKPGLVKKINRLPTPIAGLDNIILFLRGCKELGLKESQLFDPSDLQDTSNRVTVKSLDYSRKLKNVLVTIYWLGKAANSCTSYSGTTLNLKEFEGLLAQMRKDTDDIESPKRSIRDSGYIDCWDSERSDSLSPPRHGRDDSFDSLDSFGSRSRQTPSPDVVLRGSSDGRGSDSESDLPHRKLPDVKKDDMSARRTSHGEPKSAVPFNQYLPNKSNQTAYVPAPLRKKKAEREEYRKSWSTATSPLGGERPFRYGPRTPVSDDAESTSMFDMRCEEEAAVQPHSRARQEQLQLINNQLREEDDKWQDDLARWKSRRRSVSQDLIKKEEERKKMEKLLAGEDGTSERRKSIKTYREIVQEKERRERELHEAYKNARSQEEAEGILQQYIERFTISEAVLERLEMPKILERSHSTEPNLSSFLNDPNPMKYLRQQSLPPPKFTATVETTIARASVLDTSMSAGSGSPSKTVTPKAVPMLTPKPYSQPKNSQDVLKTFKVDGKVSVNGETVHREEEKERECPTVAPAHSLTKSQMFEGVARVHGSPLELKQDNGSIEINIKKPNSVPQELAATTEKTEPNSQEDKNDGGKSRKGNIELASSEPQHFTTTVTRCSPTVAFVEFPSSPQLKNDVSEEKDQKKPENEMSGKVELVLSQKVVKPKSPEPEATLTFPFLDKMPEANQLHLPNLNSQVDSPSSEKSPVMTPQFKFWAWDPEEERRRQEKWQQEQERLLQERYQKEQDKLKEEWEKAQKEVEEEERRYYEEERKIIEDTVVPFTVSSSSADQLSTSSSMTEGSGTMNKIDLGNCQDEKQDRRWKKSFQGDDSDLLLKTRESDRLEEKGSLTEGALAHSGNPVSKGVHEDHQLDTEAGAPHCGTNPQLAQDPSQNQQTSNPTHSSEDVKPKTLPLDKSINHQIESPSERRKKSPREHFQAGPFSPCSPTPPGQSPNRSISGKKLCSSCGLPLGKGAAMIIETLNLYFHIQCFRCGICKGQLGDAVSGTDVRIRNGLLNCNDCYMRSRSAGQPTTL

[3] = molecular target: cysteines in MDA-MB-231 and Ramos cells (Homo sapiens, UniProt P22061)
[4] = molecular target: T2, cysteines in MDA-MB-231 and Ramos cells (Homo sapiens, UniProt P55265); settings: 200 μM, insitu
T2 sequence (P55265 1-1226): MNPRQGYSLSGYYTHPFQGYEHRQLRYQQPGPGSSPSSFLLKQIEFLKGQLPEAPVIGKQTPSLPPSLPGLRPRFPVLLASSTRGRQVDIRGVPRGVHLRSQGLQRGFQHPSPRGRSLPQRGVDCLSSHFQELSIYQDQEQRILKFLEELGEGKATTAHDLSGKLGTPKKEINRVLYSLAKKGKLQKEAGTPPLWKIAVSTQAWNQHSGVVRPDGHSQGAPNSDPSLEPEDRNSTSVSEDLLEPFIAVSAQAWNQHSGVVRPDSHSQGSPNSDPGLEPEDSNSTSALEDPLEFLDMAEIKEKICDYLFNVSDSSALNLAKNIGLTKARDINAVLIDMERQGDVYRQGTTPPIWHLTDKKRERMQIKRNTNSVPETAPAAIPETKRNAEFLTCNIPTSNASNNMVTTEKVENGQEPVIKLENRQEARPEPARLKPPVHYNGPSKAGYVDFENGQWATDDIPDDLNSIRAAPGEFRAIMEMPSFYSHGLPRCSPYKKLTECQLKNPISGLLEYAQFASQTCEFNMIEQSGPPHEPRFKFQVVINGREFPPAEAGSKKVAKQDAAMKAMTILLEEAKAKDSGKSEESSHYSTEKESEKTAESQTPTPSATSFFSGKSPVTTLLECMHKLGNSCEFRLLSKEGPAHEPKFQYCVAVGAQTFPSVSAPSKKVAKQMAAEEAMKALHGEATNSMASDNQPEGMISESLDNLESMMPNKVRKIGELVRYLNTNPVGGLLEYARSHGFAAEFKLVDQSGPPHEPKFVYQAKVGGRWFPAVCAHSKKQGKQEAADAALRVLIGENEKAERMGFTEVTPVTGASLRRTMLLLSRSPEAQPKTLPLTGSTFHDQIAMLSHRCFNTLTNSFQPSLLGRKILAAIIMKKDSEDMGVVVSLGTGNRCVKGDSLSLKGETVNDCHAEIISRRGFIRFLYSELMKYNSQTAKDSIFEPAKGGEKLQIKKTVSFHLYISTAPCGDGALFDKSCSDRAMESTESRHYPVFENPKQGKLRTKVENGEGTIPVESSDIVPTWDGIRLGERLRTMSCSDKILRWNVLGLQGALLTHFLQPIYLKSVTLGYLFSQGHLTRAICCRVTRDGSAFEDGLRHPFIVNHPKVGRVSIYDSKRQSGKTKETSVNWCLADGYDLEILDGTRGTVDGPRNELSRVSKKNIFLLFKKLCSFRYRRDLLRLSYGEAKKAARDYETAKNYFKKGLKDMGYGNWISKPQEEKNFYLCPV

cysteines in MDA-MB-231 and Ramos cells (Homo sapiens, UniProt P22061), sequence (P22061 whole entry): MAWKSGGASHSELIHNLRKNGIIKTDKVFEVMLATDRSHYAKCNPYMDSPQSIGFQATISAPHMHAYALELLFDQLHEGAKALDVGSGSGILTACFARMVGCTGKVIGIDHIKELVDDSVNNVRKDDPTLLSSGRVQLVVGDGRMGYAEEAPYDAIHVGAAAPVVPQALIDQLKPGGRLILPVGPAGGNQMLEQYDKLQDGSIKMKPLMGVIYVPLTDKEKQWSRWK
cysteines in MDA-MB-231 and Ramos cells (Homo sapiens, UniProt Q9Y3D2), sequence (Q9Y3D2 21-182): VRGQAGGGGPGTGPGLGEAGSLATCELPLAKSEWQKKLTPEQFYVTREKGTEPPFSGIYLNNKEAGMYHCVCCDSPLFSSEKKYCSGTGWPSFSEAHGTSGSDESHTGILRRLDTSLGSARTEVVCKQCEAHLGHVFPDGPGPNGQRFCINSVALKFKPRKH

Cc1ccc(C=C(C#N)C(=O)NCCN2CCOCC2)cc1 [compound 41]
isoTOP-ABPP ratio Q9Y3D2_C105 ([1]; 200 μM, insitu, 231): 1.2
isoTOP-ABPP ratio Q9UPQ0_C140 ([2]; 200 μM, insitu, 231): 0.5
isoTOP-ABPP ratio P22061_ ([3]; 200 μM, insitu, 231): 0.7

O=C(CCl)NC(=O)NC12CC3CC(CC(C3)C1)C2 [compound 12]
isoTOP-ABPP ratio, cysteine Q9Y3D2_C105 ([1]; 200 μM, insitu, 231): 20.0
isoTOP-ABPP ratio Q9UPQ0_C140 ([2]; 200 μM, insitu, 231): 1.9
isoTOP-ABPP ratio P22061_C102 ([3]; 200 μM, insitu, 231): 5.8

O=C(CCl)NCCc1c[nH]c2ccccc12 [compound 13]
isoTOP-ABPP ratio Q9UPQ0_C140 ([2]; 200 μM, insitu, 231): 1.1
isoTOP-ABPP ratio P22061_C102 ([3]; 200 μM, insitu, 231): 0.9
isoTOP-ABPP ratio, cysteine P55265_C1224 [4]; 231: 1.9

O=C(CCl)N1CCC(Cc2ccccc2)CC1 [compound 9]
isoTOP-ABPP reactivity P22061_C102 PCMT1 ([3]; 200 μM, insitu, 231): 1.2

COc1ccc(C2CC(c3cccs3)=NN2C(=O)CCl)cc1 (centres unmarked) [compound 4]
isoTOP-ABPP reactivity Q9Y3D2_C105 MSRB2 ([1]; 100 μM in situ 231): 20.0
isoTOP-ABPP reactivity P22061_C102 PCMT1 ([3]; 100 μM in situ 231): 2.8

O=C(CCl)NC12CC3CC(CC(C3)C1)C2 [compound 21]
isoTOP-ABPP ratio Q9UPQ0_C140 ([2]; 200 μM, insitu, 231): 0.8
isoTOP-ABPP ratio, cysteine P55265_C1224 [4]; 231: 2.2

O=C(CCl)Nc1cccc2ncccc12 [compound 51]
isoTOP-ABPP ratio P55265_C1224 [4]; 231: 1.3

Cn1cc(S(=O)(=O)N2CCOCC2)cc1C(=O)NC(=O)CCl [compound 11]
isoTOP-ABPP ratio, cysteine Q9Y3D2_C105 ([1]; 100 μM in situ 231): 1.3
isoTOP-ABPP ratio Q9UPQ0_C140 ([2]; 100 μM in situ 231): 1.0
isoTOP-ABPP ratio P22061_C102 ([3]; 100 μM in situ 231): 0.8

C=CC(=O)Nc1cc(F)c(N2CCN(C(=O)OC(C)(C)C)CC2)c(F)c1 [compound 38]
isoTOP-ABPP ratio Q9Y3D2_C105 ([1]; 200 μM, insitu, 231): 1.6
isoTOP-ABPP ratio Q9UPQ0_C140 ([2]; 200 μM, insitu, 231): 2.5

CC1CCc2ccccc2N1C(=O)CCl (centres unmarked) [compound 45]
isoTOP-ABPP ratio Q9Y3D2_C105 ([1]; 200 μM, insitu, 231): 20.0
isoTOP-ABPP ratio Q9UPQ0_C140 ([2]; 200 μM, insitu, 231): 20.0
isoTOP-ABPP ratio P55265_C1224 [4]; 231: 20.0

COc1ccc2c(c1)CCCN2C(=O)CCl [compound 2]
isoTOP-ABPP reactivity Q9UPQ0_C140 LIMCH1 ([2]; 200 μM, insitu, 231): 20.0
isoTOP-ABPP reactivity P55265_C1224 ADAR [4]; 231: 9.1

COc1cc2c(cc1OC)CN(C(=O)CCl)CC2 [compound 8]
isoTOP-ABPP reactivity Q9Y3D2_C105 MSRB2 ([1]; 200 μM, insitu, 231): 20.0
isoTOP-ABPP reactivity Q9UPQ0_C140 LIMCH1 ([2]; 200 μM, insitu, 231): 20.0
isoTOP-ABPP reactivity P22061_C102 PCMT1 ([3]; 200 μM, insitu, 231): 4.5

CC(C)CCOCCNC(=O)CCl [compound 27]
isoTOP-ABPP ratio Q9Y3D2_C105 ([1]; 200 μM, insitu, 231): 1.5
isoTOP-ABPP ratio Q9UPQ0_C140 ([2]; 200 μM, insitu, 231): 0.7
isoTOP-ABPP ratio P22061_ ([3]; 200 μM, insitu, 231): 2.2
isoTOP-ABPP ratio P55265_C1224 [4]; 231: 1.4

O=C(CCl)N1CCN(S(=O)(=O)c2ccccc2F)CC1 [compound 10]
isoTOP-ABPP ratio, cysteine Q9Y3D2_C105 ([1]; 200 μM, insitu, 231): 20.0
isoTOP-ABPP ratio Q9UPQ0_C140 ([2]; 200 μM, insitu, 231): 3.9
isoTOP-ABPP ratio P22061_C102 ([3]; 200 μM, insitu, 231): 1.6
isoTOP-ABPP ratio, cysteine P55265_C1224 [4]; 231: 10.7

O=C(CCl)N1CCN(CC(=O)N2CCOCC2)CC1 [compound 29]
isoTOP-ABPP ratio P22061_ ([3]; 200 μM, insitu, ramos): 1.2
isoTOP-ABPP ratio P55265_C1224 ([4]; ramos): 1.8
